This test deals with T1, GSK3B (GSK3 beta) (Homo sapiens, UniProt P49841).
T1 construct: purchased Thermo Fisher Scientific (Life Technologies) SelectScreen
As to the kind of experiment: SelectScreen Z'LYTE. Type of test: biochemical. An outline of the steps:
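Percent values come from Thermo SelectScreen profiling of NU5455, combining activity and binding assays. CSF1R was run in Z'LYTE format at Km app ATP, and CAMK1 in Adapta format with ATP listed at 10.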

T1 sequence (P49841 whole entry): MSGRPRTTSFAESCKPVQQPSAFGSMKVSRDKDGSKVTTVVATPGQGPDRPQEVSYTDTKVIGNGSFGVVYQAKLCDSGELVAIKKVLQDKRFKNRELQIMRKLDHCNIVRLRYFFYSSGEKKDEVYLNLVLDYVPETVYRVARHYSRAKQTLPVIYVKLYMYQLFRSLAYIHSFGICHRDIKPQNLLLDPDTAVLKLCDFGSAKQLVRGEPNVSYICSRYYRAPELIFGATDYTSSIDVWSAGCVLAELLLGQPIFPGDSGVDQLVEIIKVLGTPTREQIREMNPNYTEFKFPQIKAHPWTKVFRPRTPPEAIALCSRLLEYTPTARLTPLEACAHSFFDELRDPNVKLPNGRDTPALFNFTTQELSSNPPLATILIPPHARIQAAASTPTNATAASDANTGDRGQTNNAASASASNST

For `CN(C(=O)CN1CCOCC1)c1ccc2sc3c(-c4cccc5c(=O)cc(N6CC7CCC(C6)O7)oc45)cccc3c2c1` [NU5455], the inhibition at 1 µM is -2.5%.

What is called inhibition is the relative decrease from the control value, in per cent.

For the origin of these results see paper PMC6934184, “Selective DNA-PKcs inhibition extends the therapeutic index of localized radiotherapy and chemotherapy” (The Journal of Clinical Investigation, 2019).
